Experimental data published in ChEMBL document CHEMBL1127199, “Design of C-terminal peptide antagonists of endothelin: structure-activity relationships of ET-[1621, D-His16]” (Bioorg Med Chem Lett, 1993).
Where a SMILES comes first, the peptide text is derived from it. [ ]: non-standard residue; d: D form.

Experiments:
[1] = molecular target: T1, Endothelin receptor type B (Rattus norvegicus, UniProt P21451); experiment: Displacement of [125I]ET1 from Endothelin B receptor of rat cerebellum; type: tissue-based
T1 sequence (P21451 whole entry): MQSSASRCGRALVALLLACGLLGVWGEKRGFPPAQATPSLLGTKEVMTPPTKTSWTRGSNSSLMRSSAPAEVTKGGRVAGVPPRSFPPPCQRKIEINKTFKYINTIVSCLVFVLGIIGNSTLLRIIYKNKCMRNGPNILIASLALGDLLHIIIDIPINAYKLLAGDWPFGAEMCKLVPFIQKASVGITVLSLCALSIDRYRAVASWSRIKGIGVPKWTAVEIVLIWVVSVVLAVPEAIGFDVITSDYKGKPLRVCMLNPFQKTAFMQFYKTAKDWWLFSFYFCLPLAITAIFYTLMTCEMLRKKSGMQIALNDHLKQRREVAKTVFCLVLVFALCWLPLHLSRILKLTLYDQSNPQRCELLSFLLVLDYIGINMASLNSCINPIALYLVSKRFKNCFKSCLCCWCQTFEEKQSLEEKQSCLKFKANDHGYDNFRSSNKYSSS

[2] = molecular target: Endothelin A receptor (Oryctolagus cuniculus); experiment: Displacement of [125I]-ET-1 from Endothelin A receptor of rabbit renal artery vascular smooth muscle cells
Oryctolagus cuniculus = species on record: Oryctolagus cuniculus; experiment: Compound was tested for its inhibition of ET-1 induced arachidonic acid accumulation in rabbit renal artery vascular smooth muscle cells; type: functional

SMILES | IC50 [1] | IC50 [2] | IC50 (Oryctolagus cuniculus)
CC[C@H](C)[C@H](NC(=O)[C@H](CC(=O)O)NC(=O)[C@H](CC(C)C)NC(=O)[C@H](Cc1c[nH]cn1)NC(C)=O)C(=O)N[C@H](C(=O)N[C@@H](Cc1c[nH]c2ccccc12)C(=O)O)[C@@H](C)CC (Ac-HLDIIW-OH) | > 50000 nM |  | 
CC[C@H](C)[C@H](NC(=O)[C@H](CC(=O)O)NC(=O)[C@@H](Cc1ccccc1)NC(C)=O)C(=O)N[C@H](C(=O)N[C@@H](Cc1c[nH]c2ccccc12)C(=O)O)[C@@H](C)CC (Ac-[dF]DIIW-OH) |  | 9100 nM | 
CC[C@H](C)[C@H](NC(=O)[C@H](CC(=O)O)NC(=O)[C@H](CCC(=O)O)NC(=O)[C@@H](Cc1ccccc1)NC(C)=O)C(=O)N[C@H](C(=O)N[C@@H](Cc1c[nH]c2ccccc12)C(=O)O)[C@@H](C)CC (Ac-[dF]EDIIW-OH) |  |  | 600 nM
CC[C@H](C)[C@H](NC(=O)[C@H](CC(=O)O)NC(=O)[C@@H](Cc1ccccc1)NC(=O)[C@@H](Cc1ccccc1)NC(C)=O)C(=O)N[C@H](C(=O)N[C@@H](Cc1c[nH]c2ccccc12)C(=O)O)[C@@H](C)CC (Ac-[dF][dF]DIIW-OH) | 30 nM |  | 1600 nM

Now from value to compound:

IC50 [1] | IC50 [2] | IC50 (Oryctolagus cuniculus) | SMILES
50 nM |  |  | CC[C@H](C)[C@H](NC(=O)[C@H](CC(=O)O)NC(=O)[C@H](Cc1ccccc1)NC(=O)[C@@H](Cc1ccccc1)NC(C)=O)C(=O)N[C@H](C(=O)N[C@@H](Cc1c[nH]c2ccccc12)C(=O)O)[C@@H](C)CC (Ac-[dF]FDIIW-OH)
140 nM |  |  | CC[C@H](C)[C@H](NC(=O)[C@H](CC(=O)O)NC(=O)[C@H](CC(C)C)NC(=O)[C@@H](Cc1ccccc1)NC(C)=O)C(=O)N[C@H](C(=O)N[C@@H](Cc1c[nH]c2ccccc12)C(=O)O)[C@@H](C)CC (Ac-[dF]LDIIW-OH)
